Tests used:
Cytochrome P450 1A2 = biological target: T1, Cytochrome P450 1A2 (Homo sapiens, UniProt P05177); conditions: bti-tn-5b1-4
T1 sequence (P05177 whole entry): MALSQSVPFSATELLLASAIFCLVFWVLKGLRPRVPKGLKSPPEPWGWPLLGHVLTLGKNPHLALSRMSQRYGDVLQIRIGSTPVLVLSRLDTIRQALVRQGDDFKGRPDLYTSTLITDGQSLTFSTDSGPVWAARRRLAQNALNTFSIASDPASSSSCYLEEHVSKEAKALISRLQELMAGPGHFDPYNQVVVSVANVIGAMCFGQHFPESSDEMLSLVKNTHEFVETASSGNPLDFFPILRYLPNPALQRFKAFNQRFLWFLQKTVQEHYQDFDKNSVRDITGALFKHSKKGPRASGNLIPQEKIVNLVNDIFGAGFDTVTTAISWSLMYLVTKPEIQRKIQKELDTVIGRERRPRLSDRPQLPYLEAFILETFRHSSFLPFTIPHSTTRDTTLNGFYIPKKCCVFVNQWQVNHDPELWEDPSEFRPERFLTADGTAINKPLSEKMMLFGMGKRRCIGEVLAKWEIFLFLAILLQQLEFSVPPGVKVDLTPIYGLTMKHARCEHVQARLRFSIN

Cytochrome P450 2A6 = biological target: T2, Cytochrome P450 2A6 (Homo sapiens, UniProt P11509); conditions: bti-tn-5b1-4
T2 sequence (P11509 whole entry): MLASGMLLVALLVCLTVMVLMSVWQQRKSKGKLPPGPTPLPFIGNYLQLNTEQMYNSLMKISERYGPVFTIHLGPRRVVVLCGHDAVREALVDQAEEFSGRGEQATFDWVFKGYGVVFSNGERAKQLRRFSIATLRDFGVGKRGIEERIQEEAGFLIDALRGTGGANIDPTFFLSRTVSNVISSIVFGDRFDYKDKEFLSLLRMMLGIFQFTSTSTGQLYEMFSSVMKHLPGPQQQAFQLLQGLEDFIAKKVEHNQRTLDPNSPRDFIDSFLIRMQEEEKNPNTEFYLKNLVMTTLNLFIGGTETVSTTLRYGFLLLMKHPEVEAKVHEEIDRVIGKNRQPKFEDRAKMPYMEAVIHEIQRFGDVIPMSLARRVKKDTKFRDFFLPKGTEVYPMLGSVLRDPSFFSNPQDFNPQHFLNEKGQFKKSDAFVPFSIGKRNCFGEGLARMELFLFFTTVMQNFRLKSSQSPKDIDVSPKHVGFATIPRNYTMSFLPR

Cytochrome P450 2C19 = Cytochrome P450 2C19 (Homo sapiens, UniProt P33261); conditions: bti-tn-5b1-4
Cytochrome P450 2C9 = Cytochrome P450 2C9 (Homo sapiens, UniProt P11712); conditions: bti-tn-5b1-4
Cytochrome P450 2D6 = Cytochrome P450 2D6 (Homo sapiens, UniProt P10635); conditions: bti-tn-5b1-4
Cytochrome P450 2E1 = Cytochrome P450 2E1 (Homo sapiens, UniProt P05181); conditions: bti-tn-5b1-4
Cytochrome P450 3A4 = Cytochrome P450 3A4 (Homo sapiens, UniProt P08684); conditions: bti-tn-5b1-4
[1] = biological target: Voltage-gated inwardly rectifying potassium channel KCNH2 (Homo sapiens, UniProt Q12809); conditions: hek293
Further: in other assays of this panel Not Active means under 50% inhibition at 10 µM.

Chain of Cytochrome P450 2C19 (P33261 whole entry): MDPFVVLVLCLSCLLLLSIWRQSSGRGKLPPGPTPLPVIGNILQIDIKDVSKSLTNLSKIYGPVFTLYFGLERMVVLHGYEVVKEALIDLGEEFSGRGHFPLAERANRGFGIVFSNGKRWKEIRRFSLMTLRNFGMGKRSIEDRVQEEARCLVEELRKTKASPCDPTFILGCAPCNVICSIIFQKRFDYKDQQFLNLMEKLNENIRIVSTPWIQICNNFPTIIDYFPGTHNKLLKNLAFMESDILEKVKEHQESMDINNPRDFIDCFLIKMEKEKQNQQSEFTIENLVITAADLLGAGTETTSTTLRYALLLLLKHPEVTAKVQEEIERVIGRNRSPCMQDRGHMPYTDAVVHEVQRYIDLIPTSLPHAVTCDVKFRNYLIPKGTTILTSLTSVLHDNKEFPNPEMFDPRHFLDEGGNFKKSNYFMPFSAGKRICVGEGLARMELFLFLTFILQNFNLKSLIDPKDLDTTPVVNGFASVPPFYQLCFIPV
Chain of Cytochrome P450 2D6 (P10635 whole entry): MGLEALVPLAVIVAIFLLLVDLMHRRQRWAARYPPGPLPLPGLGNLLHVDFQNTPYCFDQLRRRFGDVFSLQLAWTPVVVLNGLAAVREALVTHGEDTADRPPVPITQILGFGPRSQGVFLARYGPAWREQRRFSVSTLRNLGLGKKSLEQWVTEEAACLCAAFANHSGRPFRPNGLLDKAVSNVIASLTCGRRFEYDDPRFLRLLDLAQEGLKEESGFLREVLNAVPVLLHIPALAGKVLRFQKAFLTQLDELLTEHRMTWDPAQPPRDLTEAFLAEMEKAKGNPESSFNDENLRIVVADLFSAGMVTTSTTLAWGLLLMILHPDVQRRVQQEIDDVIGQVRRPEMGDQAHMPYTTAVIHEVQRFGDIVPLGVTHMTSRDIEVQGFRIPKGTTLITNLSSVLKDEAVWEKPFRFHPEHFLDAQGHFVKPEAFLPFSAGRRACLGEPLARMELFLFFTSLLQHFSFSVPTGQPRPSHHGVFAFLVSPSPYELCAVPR
Chain of Cytochrome P450 2E1 (P05181 whole entry): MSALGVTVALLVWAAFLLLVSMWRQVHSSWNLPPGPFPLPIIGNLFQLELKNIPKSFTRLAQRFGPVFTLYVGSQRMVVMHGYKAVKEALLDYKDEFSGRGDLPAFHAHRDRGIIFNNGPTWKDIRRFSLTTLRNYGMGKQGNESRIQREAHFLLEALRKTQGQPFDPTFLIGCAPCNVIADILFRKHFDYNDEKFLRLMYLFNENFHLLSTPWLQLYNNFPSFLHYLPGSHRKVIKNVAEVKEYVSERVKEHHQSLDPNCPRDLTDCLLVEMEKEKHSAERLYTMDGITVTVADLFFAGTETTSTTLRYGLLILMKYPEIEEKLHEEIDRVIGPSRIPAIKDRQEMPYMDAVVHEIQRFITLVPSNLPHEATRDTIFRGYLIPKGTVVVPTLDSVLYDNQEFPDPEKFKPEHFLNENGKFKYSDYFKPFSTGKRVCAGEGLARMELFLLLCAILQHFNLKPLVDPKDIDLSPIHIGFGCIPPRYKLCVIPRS
Chain of Voltage-gated inwardly rectifying potassium channel KCNH2 (Q12809 whole entry): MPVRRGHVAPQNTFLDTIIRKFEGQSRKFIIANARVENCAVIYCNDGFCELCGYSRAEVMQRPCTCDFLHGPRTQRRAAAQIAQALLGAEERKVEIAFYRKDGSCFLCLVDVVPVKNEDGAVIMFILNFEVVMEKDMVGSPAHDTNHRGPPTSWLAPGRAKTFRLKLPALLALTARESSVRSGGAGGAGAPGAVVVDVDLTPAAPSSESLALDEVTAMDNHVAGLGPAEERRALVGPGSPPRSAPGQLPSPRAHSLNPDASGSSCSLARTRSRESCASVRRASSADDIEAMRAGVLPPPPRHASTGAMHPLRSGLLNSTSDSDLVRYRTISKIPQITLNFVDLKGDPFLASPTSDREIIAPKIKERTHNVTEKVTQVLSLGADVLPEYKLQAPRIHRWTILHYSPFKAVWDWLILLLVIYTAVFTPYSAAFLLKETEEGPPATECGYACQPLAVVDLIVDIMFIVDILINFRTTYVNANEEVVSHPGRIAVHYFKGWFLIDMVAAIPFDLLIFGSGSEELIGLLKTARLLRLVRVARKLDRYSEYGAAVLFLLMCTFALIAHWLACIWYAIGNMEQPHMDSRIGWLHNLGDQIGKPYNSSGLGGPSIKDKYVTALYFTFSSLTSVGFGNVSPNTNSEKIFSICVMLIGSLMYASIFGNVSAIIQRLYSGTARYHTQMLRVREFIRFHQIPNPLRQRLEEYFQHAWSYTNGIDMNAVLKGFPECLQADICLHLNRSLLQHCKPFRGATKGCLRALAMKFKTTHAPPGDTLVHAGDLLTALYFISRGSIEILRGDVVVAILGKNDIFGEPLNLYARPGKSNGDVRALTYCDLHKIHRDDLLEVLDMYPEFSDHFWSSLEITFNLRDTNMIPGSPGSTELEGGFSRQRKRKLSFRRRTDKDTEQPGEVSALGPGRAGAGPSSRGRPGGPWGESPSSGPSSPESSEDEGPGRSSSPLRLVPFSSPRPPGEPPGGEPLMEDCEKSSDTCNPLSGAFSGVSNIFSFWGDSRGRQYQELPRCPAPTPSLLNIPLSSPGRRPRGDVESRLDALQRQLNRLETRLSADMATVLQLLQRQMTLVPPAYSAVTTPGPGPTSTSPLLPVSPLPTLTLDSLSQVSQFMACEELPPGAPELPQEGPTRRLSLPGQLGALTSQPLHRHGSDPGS
Chain of Cytochrome P450 3A4 (P08684 whole entry): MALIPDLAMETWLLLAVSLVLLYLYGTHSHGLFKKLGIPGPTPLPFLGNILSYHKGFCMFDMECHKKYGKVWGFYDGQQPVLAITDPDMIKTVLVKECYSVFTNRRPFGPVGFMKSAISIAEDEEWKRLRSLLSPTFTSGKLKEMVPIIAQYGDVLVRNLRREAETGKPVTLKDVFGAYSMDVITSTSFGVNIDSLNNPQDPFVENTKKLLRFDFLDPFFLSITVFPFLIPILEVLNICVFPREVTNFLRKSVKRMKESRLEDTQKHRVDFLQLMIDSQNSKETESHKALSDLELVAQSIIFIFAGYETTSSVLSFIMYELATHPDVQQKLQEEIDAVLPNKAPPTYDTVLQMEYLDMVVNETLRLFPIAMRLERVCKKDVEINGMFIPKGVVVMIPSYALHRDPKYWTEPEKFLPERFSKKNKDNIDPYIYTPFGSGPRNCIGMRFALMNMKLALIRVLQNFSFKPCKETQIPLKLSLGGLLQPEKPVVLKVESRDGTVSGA
Chain of Cytochrome P450 2C9 (P11712 whole entry): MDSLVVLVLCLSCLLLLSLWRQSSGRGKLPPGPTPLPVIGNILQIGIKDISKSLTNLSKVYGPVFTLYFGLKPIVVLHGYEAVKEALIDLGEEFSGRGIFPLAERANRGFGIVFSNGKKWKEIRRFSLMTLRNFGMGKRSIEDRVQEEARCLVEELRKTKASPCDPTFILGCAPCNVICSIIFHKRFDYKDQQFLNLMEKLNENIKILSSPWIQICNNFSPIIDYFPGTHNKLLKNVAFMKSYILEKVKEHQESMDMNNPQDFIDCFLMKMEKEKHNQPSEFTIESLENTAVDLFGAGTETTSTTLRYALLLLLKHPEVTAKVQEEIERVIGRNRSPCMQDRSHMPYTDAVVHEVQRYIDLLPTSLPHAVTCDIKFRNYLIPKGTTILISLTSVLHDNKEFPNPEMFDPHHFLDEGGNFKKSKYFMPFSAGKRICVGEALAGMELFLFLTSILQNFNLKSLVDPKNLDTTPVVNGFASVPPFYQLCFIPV

CC=Cc1ccc(O)c(OC)c1 [ISOEUGENOL]
Not Active: IC50 (Cytochrome P450 1A2) | Ki (Cytochrome P450 1A2) | IC50 (Cytochrome P450 2A6) | Ki (Cytochrome P450 2A6) | IC50 (Cytochrome P450 2C19) | Ki (Cytochrome P450 2C19) | IC50 (Cytochrome P450 2C9) | Ki (Cytochrome P450 2C9) | IC50 (Cytochrome P450 2D6) | Ki (Cytochrome P450 2D6) | IC50 (Cytochrome P450 2E1) | Ki (Cytochrome P450 2E1) | IC50 (Cytochrome P450 3A4) | Ki (Cytochrome P450 3A4) | IC50 [1] | Ki [1]

Reference: ChEMBL document CHEMBL1909046, “DrugMatrix in vitro pharmacology data”
